Like-named read-outs stand apart in the source and are kept apart here. Marks after values point to notes of the source that are not given here.
What was measured:
in vitro = settings: PAMPA, pH 7.4, log Pe
[1] = cited from earlier work
[2] = skin-PAMPA permeability assay (gradient-pH, UPLC-DAD); settings: for Papp at 4 h, 50 μM / Papp at 24 h, 50 μM / Papp at 30 min, 50 μM: PAMPA
[3] = set-up: method as in earlier work; settings: octanol-water partition coefficient; cited from earlier work
[4] = cited from earlier work; remark: listed apart in the source
[5] = skin-PAMPA membrane stability after pre-treatment at basic pH; settings: membrane soaked at pH 7, 8, 9, 10 for 30 min or 4 h; then assay 4 h with stirring, donor pH 5, acceptor pH 7.4; versus untreated membrane
[6] = PAMPA
[7] = logarithm of human skin permeation coefficient, neutral form, corrected for ionization in water and for temperature at 37 °C
[8] = pH 7.4, log Pe, optimized assay conditions (4 h incubation, stirring), measured at the pH corresponding to the neutral form, acceptor pH 7.4
[9] = optimized assay conditions (4 h incubation, stirring), measured at the pH corresponding to the neutral form, acceptor pH 7.4
[10] = log Pe, with stirring, 4 h incubation, neutral form (donor pH 3.0, aminopyrine pH 7.0), acceptor pH 7.4, 32 °C
[11] = log Pe, with stirring, 24 h incubation, neutral form (donor pH 3.0, aminopyrine pH 7.0), acceptor pH 7.4, 32 °C
[12] = log Pe, without stirring, 4 h incubation, neutral form (donor pH 3.0, aminopyrine pH 7.0), acceptor pH 7.4, 32 °C
[13] = log Pe, without stirring, 24 h incubation, neutral form (donor pH 3.0, aminopyrine pH 7.0), acceptor pH 7.4, 32 °C
[14] = mole fraction, with stirring, 30 min incubation, neutral form
[15] = mole fraction, with stirring, 4 h incubation, neutral form
[16] = mole fraction, with stirring, 24 h incubation, neutral form
[17] = mole fraction, without stirring, 30 min incubation, neutral form
[18] = mole fraction, without stirring, 4 h incubation, neutral form
[19] = mole fraction, without stirring, 24 h incubation, neutral form
[20] = without stirring, 4 h incubation, neutral form (donor pH 3.0, aminopyrine pH 7.0), acceptor pH 7.4, 32 °C
[21] = log Pe, without stirring, 30 min incubation, neutral form (donor pH 3.0, aminopyrine pH 7.0), acceptor pH 7.4, 32 °C
[22] = with stirring, 30 min incubation, neutral form (donor pH 3.0, aminopyrine pH 7.0), acceptor pH 7.4, 32 °C

Nc1ccccc1 [Aniline]
Papp (in vitro): 28.2 ×10⁻⁶ cm/s
log Kp ([1]; human): -4.94 cm/s

Cn1c(=O)c2c(ncn2C)n(C)c1=O [Caffeine]
log Kp [1, 7]: -6.85 cm/s

Oc1ccc(O)cc1 [Hydroquinone]
log Kp [1, 7]: -6.31 cm/s
Papp at 4 h, 50 μM [2, 8]: 1.35 ×10⁻⁶ cm/s

CC(=O)[C@@]1(O)CC[C@H]2[C@@H]3CCC4=CC(=O)CC[C@]4(C)[C@H]3CC[C@@]21C [Hydroxyprogesterone]
log Kp [1, 7]: -6.30 cm/s
log Pe [2, 9]: -4.70±0.05 cm/s

O=c1[nH]cc(F)c(=O)[nH]1 [5-Fluorouracil]
log Po/w [3]: -0.89
pKa [4]: 7.86 ^a
log Kp [1, 7]: -6.82 cm/s
Papp at 4 h, 50 μM [2, 10]: 1.7 ×10⁻⁶ cm/s
Papp at 24 h, 50 μM [2, 11]: 0.692 ×10⁻⁶ cm/s
Papp at 4 h, 50 μM [2, 12]: 0.339 ×10⁻⁶ cm/s
Papp at 24 h, 50 μM [2, 13]: 0.851 ×10⁻⁶ cm/s
RM (membrane retention) [2, 14]: 0.00
RM (membrane retention) [2, 15]: 0.04(±0.04)
RM (membrane retention) [2, 16]: 0.08(±0.03)
RM (membrane retention) [2, 17]: 0.00
RM (membrane retention) [2, 18]: 0.01(±0.03)
RM (membrane retention) [2, 19]: 0.05(±0.02)
log Pe [2, 9]: -5.77±0.02 cm/s
log Pe [2, 20]: -6.47 cm/s

CC(=O)OCC(=O)[C@@]12OC(C)(C)O[C@@H]1C[C@H]1[C@@H]3C[C@H](F)C4=CC(=O)C=C[C@]4(C)[C@@]3(F)[C@@H](O)C[C@@]12C [Fluocinonide]
Papp at 4 h, 50 μM [2, 8]: 4.17 ×10⁻⁶ cm/s

OCc1ccc(O)cc1 [4-Hydroxybenzyl alcohol]
log Kp [1, 7]: -6.26 cm/s
Papp at 4 h, 50 μM [2, 8]: 1.41 ×10⁻⁶ cm/s

CC(C(=O)O)c1ccc(-c2ccccc2)c(F)c1 (stereo not shown) [Flurbiprofen]
log Po/w [3]: 4.16
pKa [4]: 4.19 ^c
log Kp [1, 7]: -4.72 cm/s
Papp at 4 h, 50 μM [2, 10]: 204 ×10⁻⁶ cm/s
Papp at 30 min, 50 μM [2, 21]: 288 ×10⁻⁶ cm/s
Papp at 4 h, 50 μM [2, 12]: 141 ×10⁻⁶ cm/s
RM (membrane retention) [2, 14]: 0.18(±0.03)
RM (membrane retention) [2, 15]: 0.00
RM (membrane retention) [2, 16]: 0.00
RM (membrane retention) [2, 17]: 0.13(±0.02)
RM (membrane retention) [2, 18]: 0.00
RM (membrane retention) [2, 19]: 0.00
log Pe [2, 9]: -3.69±0.01 cm/s
log Pe [2, 22]: -2.98(±0.13) cm/s

Oc1ccccc1O [Catechol]
log Kp [1, 7]: -5.87 cm/s
Papp at 4 h, 50 μM [2, 8]: 4.07 ×10⁻⁶ cm/s

COC(=O)c1ccc(O)cc1 [Methyl 4-hydroxybenzoate]
log Kp [1, 7]: -5.12 cm/s

COC1=CC(=O)C[C@@H](C)[C@]12Oc1c(Cl)c(OC)cc(OC)c1C2=O [Griseofulvin]
log Po/w [3]: 2.18
log Kp [1, 7]: -6.44 cm/s
Papp at 4 h, 50 μM [2, 10]: 5.62 ×10⁻⁶ cm/s
Papp at 24 h, 50 μM [2, 11]: 7.59 ×10⁻⁶ cm/s
Papp at 30 min, 50 μM [2, 21]: 2.24 ×10⁻⁶ cm/s
Papp at 4 h, 50 μM [2, 12]: 4.68 ×10⁻⁶ cm/s
Papp at 24 h, 50 μM [2, 13]: 6.31 ×10⁻⁶ cm/s
Papp at 4 h, 50 μM [2, 8]: 5.25 ×10⁻⁶ cm/s
RM (membrane retention) [2, 14]: 0.06(±0.01)
RM (membrane retention) [2, 15]: 0.19(±0.01)
RM (membrane retention) [2, 16]: 0.24(±0.02)
RM (membrane retention) [2, 17]: 0.03(±0.02)
RM (membrane retention) [2, 18]: 0.16(±0.01)
RM (membrane retention) [2, 19]: 0.20(±0.02)
log Pe [2, 22]: -5.61(±0.01) cm/s
change of skin-PAMPA log Pe after membrane treatment at basic pH [5]: slight increase at pH 9 and 10

CN1C(C(=O)Nc2ccccn2)=C(O)c2ccccc2S1(=O)=O [Piroxicam]
log Kp [1, 7]: -6.02 cm/s
Papp at 4 h, 50 μM [2, 8]: 21.4 ×10⁻⁶ cm/s

CC(C)Cc1ccc(C(C)C(=O)O)cc1 (stereo not shown) [Ibuprofen]
log Kp [1, 7]: -4.58 cm/s
Papp at 4 h, 50 μM [2, 10]: 245 ×10⁻⁶ cm/s
Papp at 30 min, 50 μM [2, 21]: 257 ×10⁻⁶ cm/s
Papp at 4 h, 50 μM [2, 12]: 224 ×10⁻⁶ cm/s
RM (membrane retention) [2, 14]: 0.22(±0.03)
RM (membrane retention) [2, 15]: 0.00
RM (membrane retention) [2, 16]: 0.00
RM (membrane retention) [2, 17]: 0.19(±0.07)
RM (membrane retention) [2, 18]: 0.09(±0.03)
RM (membrane retention) [2, 19]: 0.00
log Pe [2, 9]: -3.61±0.06 cm/s
log Pe [2, 22]: -2.71(±0.04) cm/s

O=[N+]([O-])c1ccc(O)cc1 [4-Nitrophenol]
Papp (in vitro; [9]): 12.3 ×10⁻⁶ cm/s
log Kp [1, 7]: -5.33 cm/s

CCC1(c2ccccc2)C(=O)NC(=O)NC1=O [5-Ethyl-5-phenylbarbituric acid]
Papp (in vitro): 0.891 ×10⁻⁶ cm/s
log Kp ([1]; human): -6.68 cm/s

C[C@]12CCC(=O)C=C1CC[C@@H]1[C@@H]2CC[C@@]2(C)[C@H]1CC[C@]2(O)C(=O)CO [Cortexolone]
log Kp [1, 7]: -7.20 cm/s
Papp at 4 h, 50 μM [2, 8]: 3.55 ×10⁻⁶ cm/s

C[C@]12CC[C@@H]3c4ccc(O)cc4CC[C@H]3[C@@H]1CC[C@@H]2O [Estradiol]
log Kp [1, 7]: -5.61 cm/s

Cc1c(N(C)C)c(=O)n(-c2ccccc2)n1C [Aminopyrine]
pKa ([4]; aqueous): 5.00 ^b
log Kp [1, 7]: -6.55 cm/s

C[C@H]1O[C@@H](O[C@H]2[C@@H](O)C[C@H](O[C@H]3[C@@H](O)C[C@H](O[C@H]4CC[C@@]5(C)[C@H](CC[C@@H]6[C@@H]5CC[C@]5(C)[C@@H](C7=CC(=O)OC7)CC[C@]65O)C4)O[C@@H]3C)O[C@@H]2C)C[C@H](O)[C@@H]1O [Digitoxin]
log Pe [6]: -6.34(±0.13) cm/s
log Kp [1, 7]: -8.15 cm/s
RM (membrane retention) [2, 14]: 0.00
RM (membrane retention) [2, 15]: 0.22(±0.04)
RM (membrane retention) [2, 16]: 0.29(±0.05)
RM (membrane retention) [2, 17]: 0.00
RM (membrane retention) [2, 18]: 0.09(±0.03)
RM (membrane retention) [2, 19]: 0.25(±0.02)

Cc1ccc(C(C)C)c(O)c1 [2-Isopropyl-5-Methylphenol (Thymol), 2-Isopropyl-5-Methylphenol]
log Kp [1, 7]: -4.35 cm/s
Papp at 4 h, 50 μM [2, 8]: 97.7 ×10⁻⁶ cm/s

Oc1ccc(Cl)cc1 [4-Chlorophenol]
log Kp [1, 7]: -4.52 cm/s

CCc1ccc(O)cc1 [4-Ethylphenol]
log Kp [1, 7]: -4.53 cm/s
Papp at 4 h, 50 μM [2, 8]: 64.6 ×10⁻⁶ cm/s

Cc1cccc(O)c1 [3-Methylphenol (m-Cresol), 3-Methylphenol]
Papp (in vitro; [9]): 46.8 ×10⁻⁶ cm/s
log Kp [1, 7]: -4.89 cm/s

CC(=O)[C@H]1CC[C@H]2[C@@H]3CCC4=CC(=O)CC[C@]4(C)[C@H]3CC[C@]12C [Progesterone]
log Kp [1, 7]: -4.90 cm/s
Papp at 4 h, 50 μM [2, 10]: 77.6 ×10⁻⁶ cm/s
Papp at 24 h, 50 μM [2, 11]: 25.7 ×10⁻⁶ cm/s
Papp at 30 min, 50 μM [2, 21]: 15.5 ×10⁻⁶ cm/s
Papp at 4 h, 50 μM [2, 12]: 13.2 ×10⁻⁶ cm/s
Papp at 24 h, 50 μM [2, 13]: 20.4 ×10⁻⁶ cm/s
Papp at 4 h, 50 μM [2, 8]: 74.1 ×10⁻⁶ cm/s
RM (membrane retention) [2, 14]: 0.50(±0.04)
RM (membrane retention) [2, 15]: 0.74(±0.01)
RM (membrane retention) [2, 16]: 0.88(±0.01)
RM (membrane retention) [2, 17]: 0.33(±0.01)
RM (membrane retention) [2, 18]: 0.62(±0.04)
RM (membrane retention) [2, 19]: 0.83(±0.02)
RM (membrane retention) ([2]; range over all incubation times (30 min, 4 h, 24 h), with and without stirring): 0.33-0.88
log Pe [2, 22]: -3.25(±0.25) cm/s
log Pe [2, 20]: -4.88 cm/s

Cc1ccccc1N [2-toluidine]
change of skin-PAMPA log Pe after membrane treatment at basic pH [5]: remain constant

O=C(OCc1ccccc1)c1cccnc1 [Benzyl nicotinate]
log Kp [1, 7]: -4.87 cm/s
Papp at 4 h, 50 μM [2, 8]: 69.2 ×10⁻⁶ cm/s

Nc1ccc(O)c([N+](=O)[O-])c1 [4-Amino-2-nitrophenol]
log Kp [1, 7]: -5.91 cm/s
Papp at 4 h, 50 μM [2, 8]: 25.7 ×10⁻⁶ cm/s

COC(=O)Cc1ccc(O)cc1 [4-Hydroxy-methylphenylacetate]
log Kp [1, 7]: -5.26 cm/s
log Pe [2, 9]: -5.07±0.09 cm/s

c1ccc2cnccc2c1 [Isoquinoline]
log Kp [1, 7]: -5.11 cm/s
Papp at 4 h, 50 μM [2, 8]: 63.1 ×10⁻⁶ cm/s

CCC1(CC)C(=O)NC(=O)NC1=O [5,5-Diethylbarbituric acid (Barbital), 5,5-Diethylbarbituric acid]
Papp (in vitro): 1.78 ×10⁻⁶ cm/s
log Kp ([1]; human): -7.29 cm/s

Oc1ccc(Cl)cc1Cl [2,4-Dichlorophenol]
Papp at 4 h, 50 μM (in vitro): 120 ×10⁻⁶ cm/s
log Kp [1, 7]: -4.30 cm/s

COc1ccc2c(c1)c(CC(=O)O)c(C)n2C(=O)c1ccc(Cl)cc1 [Indomethacine]
log Kp [1, 7]: -5.39 cm/s
Papp at 4 h, 50 μM [2, 8]: 39.8 ×10⁻⁶ cm/s
change of skin-PAMPA log Pe after membrane treatment at basic pH [5]: remain constant

CC(C(=O)O)c1cccc(C(=O)c2ccccc2)c1 (stereo not shown) [Ketoprofen]
log Kp [1, 7]: -5.22 cm/s

NC(=O)Cc1ccc(O)cc1 [4-Hydroxyphenylacetamide]
log Kp [1, 7]: -6.89 cm/s
Papp at 4 h, 50 μM [2, 8]: 0.851 ×10⁻⁶ cm/s

CC(=O)CC(c1ccccc1)c1c(O)c2ccccc2oc1=O (stereo not shown) [warfarin]
change of skin-PAMPA log Pe after membrane treatment at basic pH [5]: slight increase at pH 9 and 10

COc1ccccc1 [Methyl phenyl ether (Anisole), Methyl phenyl ether]
log Kp [1, 7]: -4.68 cm/s
Papp at 4 h, 50 μM [2, 8]: 45.7 ×10⁻⁶ cm/s

COc1c2occc2cc2ccc(=O)oc12 [8-Methoxypsoralen]
Papp at 4 h, 50 μM [2, 8]: 50.1 ×10⁻⁶ cm/s

O=C(O)Cc1ccccc1Nc1c(Cl)cccc1Cl [Diclofenac]
log Kp [1, 7]: -5.30 cm/s
Papp at 4 h, 50 μM [2, 8]: 162 ×10⁻⁶ cm/s

Nc1ccccc1N [o-Phenylenediamine]
log Kp [1, 7]: -6.70 cm/s
log Pe [2, 9]: -5.42±0.02 cm/s

Reference: PMC8915600, “Optimization of experimental conditions for skin-PAMPA measurements” (ADMET & DMPK, 2020)
